Laboratory results taken from US20250134906A1 (Woolsey Pharmaceuticals, Inc., priority 2022, published 2025).
Where a name gives a salt, the structure may show the parent alone.

Columns and labels:
[1] = Solubility and stability of unbuffered aqueous fasudil solutions stored at 60° C. for 42 days; assay type: physicochemical; conditions: 16-20 mg/ml
Method: Samples were stored at 60° C. for 42 days.

[2] = Stability of aqueous fasudil in 0.05M citrate buffer with or without EDTA, 60° C. for 36 days; assay type: physicochemical
Method: Samples were stored at 60° C. for 36 days.

changes in fasudil concentration or pH [1]: stable in the range of pH 4 to pH 6
changes in pH or fasudil concentration [2]: compatible with EDTA in citrate buffer
Compound: O=S(=O)(c1cccc2cnccc12)N1CCCNCC1 [Fasudil, hexahydro-1-(5-isoquinolinesulfonyl)-1H-1,4-diazepine monohydrochloride hemihydrate]
